From US10538555B2, “Macrocyclic inhibitors of the PD-1/PD-L1 and CD80(B7-1)/PD-L1 protein/protein interactions” (BRISTOL-MYERS SQUIBB COMPANY, priority 2014, dated 2020)
pIC50: −log10 of the molar value. *1 amine or outer side, *2 acyl side, *3 side chain or, on linkers, in order; H or OH if unused. Where a SMILES comes first, the peptide text is derived from it. Bridges are numbered along the chain shown (N, C = ends). [ ]: non-standard residue; d: D form. ξ: configuration not given here. X3 = O=C(C[C@@H](CO)C(=O)[*:2])[C@H](Cc1c[nH]c2ccccc12)N[*:1]; X2 = NC(=O)C[C@H](N[*:1])C(=O)C1CCC[C@H]1C(=O)[*:2]; Phe(3,4,5-F3) = N[C@@H](Cc1cc(F)c(F)c(F)c1)C(=O)O; Phe(3,4-F2) = N[C@@H](Cc1ccc(F)c(F)c1)C(=O)O; Phe(4-F) = N[C@@H](Cc1ccc(F)cc1)C(=O)O; d(cisHyp) = O=C(O)[C@H]1C[C@@H](O)CN1; Bta = N[C@@H](Cc1csc2ccccc12)C(=O)O; NMeY = CN[C@@H](Cc1ccc(O)cc1)C(=O)O; Hyp = O=C(O)[C@@H]1C[C@@H](O)CN1; NMeF = CN[C@@H](Cc1ccccc1)C(=O)O; dPip(4-aza) = O=C(O)[C@H]1CNCCN1; dHyp = O=C(O)[C@H]1C[C@H](O)CN1; NMeL = CN[C@@H](CC(C)C)C(=O)O; NMehSer = CN[C@@H](CCO)C(=O)O; Thr(3ξ) = CC(O)[C@H](N)C(=O)O; NMeNle = CCCC[C@H](NC)C(=O)O; dNle = CCCC[C@@H](N)C(=O)O; dPip = O=C(O)[C@H]1CCCCN1; hSer = N[C@@H](CCO)C(=O)O; NMeA = CN[C@@H](C)C(=O)O; Orn = NCCC[C@H](N)C(=O)O; dNMeA = CN[C@H](C)C(=O)O; ξC = NC(CS)C(=O)O

Each compound was assayed against T1, Human PD-L1/PD-1 (Homo sapiens, UniProt Q9NZQ7) (assay: HTRF Human PD-L1/PD-1 binding assay (PD-1-Ig/PD-L1-His)). Conditions: PD-L1-His 10 nM, PD-1-Ig 20 nM; class symbol; read-out: HTRF Human PD-L1/PD-1 Binding Assay IC50 Range.
T1 construct: TVMV protease cleavage site (C); made in house; host or cells: HEK293T cells
T1 sequence (Q9NZQ7 with tags, fused parts or gaps): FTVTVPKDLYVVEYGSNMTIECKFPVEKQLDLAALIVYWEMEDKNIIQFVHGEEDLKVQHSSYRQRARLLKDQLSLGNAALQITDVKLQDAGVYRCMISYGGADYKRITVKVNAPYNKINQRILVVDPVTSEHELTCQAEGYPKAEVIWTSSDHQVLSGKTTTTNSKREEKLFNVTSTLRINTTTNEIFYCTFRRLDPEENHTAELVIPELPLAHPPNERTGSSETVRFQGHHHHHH
In short: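 HTRF read-out (665/620 nm ratio) after 30 min equilibration with Eu-cryptate anti-Ig mAb (1 nM) and APC anti-His mAb (20 nM). Peptides preincubated 15 min with PD-L1-His (10 nM), then PD-1-Ig (20 nM) added for 15 min.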

SMILES	pIC50
CCCC[C@H]1C(=O)N2CCC[C@@H]2C(=O)N[C@@H](CC(=O)O)C(=O)N[C@@H](C)C(=O)N(C)[C@@H](Cc2ccccc2)C(=O)N[C@@H](Cc2ccc(O)cc2)C(=O)N2CCCC[C@@H]2C(=O)N[C@@H](Cc2c[nH]c3ccccc23)C(=O)N[C@@H](Cc2ccc(O)cc2)C(=O)N[C@@H](CC(C)C)C(=O)N[C@H](C(=O)NCC(N)=O)CSCC(=O)N[C@@H](Cc2ccccc2)C(=O)N(C)[C@@H](Cc2ccccc2)C(=O)N1C [Example 10087] ({CH2CO}-F[NMeF][NMeNle][dP]DA[NMeF]Y[dPip]WYLCG-NH2; thioether N-13)	7.00 to 8.00
CCCC[C@H]1NC(=O)[C@H](Cc2c[nH]c3ccccc23)NC(=O)[C@H](CO)CC(=O)[C@H](Cc2c[nH]c3ccccc23)NC(=O)[C@@H]2C[C@@H](O)CN2C(=O)[C@H](CCC(N)=O)NC(=O)[C@H](Cc2cnc[nH]2)NC(=O)[C@@H]2CCCC2C(=O)[C@H](CC(N)=O)NC(=O)[C@H](C)N(C)C(=O)[C@H](Cc2ccc(O)cc2)NC(=O)CSCC(C(=O)NCC(N)=O)NC(=O)[C@H](CCC(=O)O)NC(=O)[C@H](CCCC)N(C)C1=O (stereo partly drawn) [Example 10127] ({CH2CO}-Y[NMeA][X2]HQ[Hyp][X3]W[dNle][NMeNle]E[ξC]G-NH2; thioether N-12)	5.00 to 6.00
CCCC[C@H]1NC(=O)[C@H](Cc2c[nH]c3ccccc23)NC(=O)[C@H](CO)NC(=O)[C@H](Cc2c[nH]c3ccccc23)NC(=O)[C@@H]2C[C@@H](O)CN2C(=O)[C@H](CCC(N)=O)NC(=O)[C@H](Cc2cnc[nH]2)NC(=O)[C@@H]2CCCN2C(=O)[C@H](CC(=O)O)NC(=O)[C@H](C)N(C)C(=O)[C@H](Cc2ccc(O)cc2)NC(=O)CSCC(C(=O)NCC(N)=O)NC(=O)[C@H](CCC(=O)O)NC(=O)[C@H](CCCC)N(C)C1=O (stereo partly drawn) [Example 10128] ({CH2CO}-Y[NMeA]DPHQ[Hyp]WSW[dNle][NMeNle]E[ξC]G-NH2; thioether N-14)	5.00 to 6.00
CCCC[C@H]1C(=O)N(C)[C@@H](CCCC)C(=O)N[C@@H](CCCN)C(=O)NC(C(=O)NCC(N)=O)CSCC(=O)N[C@@H](Cc2ccc(O)cc2)C(=O)N(C)[C@@H](C)C(=O)N[C@@H](CC(N)=O)C(=O)N2CCC[C@H]2C(=O)N[C@@H](CC(N)=O)C(=O)N[C@@H](CC(C)C)C(=O)N2CCC[C@H]2C(=O)N[C@@H](Cc2c[nH]c3ccccc23)C(=O)N[C@@H](CO)C(=O)N[C@@H](Cc2csc3ccccc23)C(=O)N1C (stereo partly drawn) [Example 9156] ({CH2CO}-Y[NMeA]NPNLPWS[Bta][NMeNle][NMeNle][Orn][ξC]G-NH2; thioether N-14)	8.00 to 9.00
CCCC[C@H]1C(=O)N(C)[C@@H](CCCC)C(=O)N[C@@H](CCCNC(=N)N)C(=O)N[C@H](C(=O)NCC(N)=O)CSCC(=O)N[C@@H](Cc2ccc(O)cc2)C(=O)N(C)[C@@H](C)C(=O)N[C@@H](CC(N)=O)C(=O)N2CCC[C@H]2C(=O)N[C@@H](Cc2cnc[nH]2)C(=O)N[C@@H](CC(C)C)C(=O)N2C[C@H](O)C[C@H]2C(=O)N[C@@H](Cc2c[nH]c3ccccc23)C(=O)N[C@@H](C(C)O)C(=O)N[C@@H](Cc2c[nH]c3ccccc23)C(=O)N1C (stereo partly drawn) [Example 7075] ({CH2CO}-Y[NMeA]NPHL[Hyp]W[Thr(3ξ)]W[NMeNle][NMeNle]RCG-NH2; thioether N-14)	8.00 to 9.00
CCCC[C@H]1C(=O)N2C[C@H](O)C[C@@H]2C(=O)N[C@@H](CC(=O)O)C(=O)N[C@@H](C(C)C)C(=O)N(C)[C@@H](Cc2ccccc2)C(=O)N[C@@H](CCC(=O)O)C(=O)N2CCNC[C@@H]2C(=O)N[C@@H](Cc2c[nH]c3ccccc23)C(=O)N[C@@H](Cc2ccc(O)cc2)C(=O)N[C@@H](CCCCN)C(=O)N[C@H](C(=O)NCC(N)=O)CSCC(=O)N[C@@H](Cc2cc(F)c(F)c(F)c2)C(=O)N(C)[C@@H](Cc2ccccc2)C(=O)N1C [Example 10164] ({CH2CO}-[Phe(3,4,5-F3)][NMeF][NMeNle][d(cisHyp)]DV[NMeF]E[dPip(4-aza)]WYKCG-NH2; thioether N-13)	8.00 to 9.00
CCCC[C@H]1C(=O)N[C@@H](CC(N)=O)C(=O)N2CCC[C@H]2CN[C@@H](CO)C(=O)N[C@@H](CCO)C(=O)N2CCC[C@H]2C(=O)N[C@@H](Cc2c[nH]c3ccccc23)C(=O)N[C@@H](CCN)C(=O)N[C@@H](Cc2c[nH]c3ccccc23)C(=O)N(C)[C@@H](C)C(=O)N(C)[C@@H](C)C(=O)N[C@@H](CCCNC(=N)N)C(=O)NC(C(=O)NCC(N)=O)CSCC(=O)N[C@@H](Cc2ccc(O)cc2)C(=O)N1C (stereo partly drawn) [Example 10197]	5.00 to 6.00
CCCC[C@H]1C(=O)N2C[C@H](O)C[C@@H]2C(=O)N[C@@H](CC(=O)O)C(=O)N[C@@H](C(C)C)C(=O)N(C)[C@@H](Cc2ccccc2)C(=O)N[C@@H](CCCCN)C(=O)N2C[C@H](O)C[C@@H]2C(=O)N[C@@H](Cc2c[nH]c3ccccc23)C(=O)N[C@@H](Cc2ccc(O)cc2)C(=O)N[C@@H](CCCN)C(=O)N[C@H](C(=O)NCC(N)=O)CSCC(=O)N[C@@H](Cc2ccc(F)c(F)c2)C(=O)N(C)[C@@H](Cc2ccccc2)C(=O)N1C [Example 9306] ({CH2CO}-[Phe(3,4-F2)][NMeF][NMeNle][d(cisHyp)]DV[NMeF]K[d(cisHyp)]WY[Orn]CG-NH2; thioether N-13)	8.00 to 9.00

Other lines, results leading:

pIC50	SMILES
7.00 to 8.00	CCCC[C@H]1C(=O)N[C@@H](CCC(=O)O)C(=O)N[C@H](C(=O)NCC(N)=O)CSCC(=O)N[C@@H](Cc2ccc(O)cc2)C(=O)N(C)[C@@H](C)C(=O)N[C@@H](CC(N)=O)C(=O)N2CCC[C@H]2C(=O)N[C@@H](Cc2c[nH]cn2)C(=O)N[C@@H](CCC(N)=O)C(=O)N2C[C@H](O)C[C@H]2C(=O)N[C@@H](Cc2c[nH]c3ccccc23)C(=O)N[C@@H](CO)C(=O)N[C@@H](Cc2c[nH]c3ccccc23)C(=O)N(C)[C@@H](CCOC)C(=O)N1C [Example 10141] ({CH2CO}-Y[NMeA]NPHQ[Hyp]WSW[NMehSer](Me)[NMeNle]ECG-NH2; thioether N-14)
8.00 to 9.00	CCCC[C@H]1C(=O)N(C)[C@@H](CCCC)C(=O)N[C@@H](CCCNC(=N)N)C(=O)NC(C(=O)NCC(N)=O)CSCC(=O)N[C@@H](Cc2ccc(O)cc2)C(=O)N(C)[C@@H](C)C(=O)N[C@@H](CC(N)=O)C(=O)N2CCC[C@H]2C(=O)N[C@@H](CO)C(=O)N[C@@H](CCO)C(=O)N2C[C@H](O)C[C@H]2C(=O)N[C@@H](Cc2c[nH]c3ccccc23)C(=O)N[C@@H](CCO)C(=O)N[C@@H](Cc2csc3ccccc23)C(=O)N1C (stereo partly drawn) [Example 10050] ({CH2CO}-Y[NMeA]NPS[hSer][Hyp]W[hSer][Bta][NMeNle][NMeNle]R[ξC]G-NH2; thioether N-14)
7.00 to 8.00	CC(C)C[C@@H]1NC(=O)[C@H](Cc2ccc(O)cc2)NC(=O)[C@H](Cc2c[nH]c3ccccc23)NC(=O)[C@@H](C)N(C)C(=O)[C@H](Cc2ccc(O)cc2)NC(=O)[C@H](Cc2ccccc2)N(C)C(=O)[C@H](C(C)C)NC(=O)[C@H](CCC(N)=O)NC(=O)[C@@H](C)N(C)C(=O)[C@H](C)N(C)C(=O)[C@H](Cc2ccccc2)N(C)C(=O)[C@H](Cc2cc(F)c(F)c(F)c2)NC(=O)CSC[C@@H](C(=O)NCC(N)=O)NC1=O [Example 9191] ({CH2CO}-[Phe(3,4,5-F3)][NMeF][NMeA][dNMeA]QV[NMeF]Y[dNMeA]WYLCG-NH2; thioether N-13)
6.00 to 7.00	CCCC[C@H]1C(=O)N2CCC[C@@H]2C(=O)N[C@@H](CC(=O)O)C(=O)N[C@@H](C(C)C)C(=O)N(C)[C@@H](CC(C)C)C(=O)N[C@@H](Cc2ccc(O)cc2)C(=O)N2CCC[C@@H]2C(=O)N[C@@H](Cc2c[nH]c3ccccc23)C(=O)N[C@@H](Cc2ccc(O)cc2)C(=O)N[C@@H](CC(C)C)C(=O)N[C@H](C(=O)NCC(N)=O)CSCC(=O)N[C@@H](Cc2ccc(F)cc2)C(=O)N(C)[C@@H](Cc2ccccc2)C(=O)N1C [Example 9249] ({CH2CO}-[Phe(4-F)][NMeF][NMeNle][dP]DV[NMeL]Y[dP]WYLCG-NH2; thioether N-13)
8.00 to 9.00	CCCC[C@H]1C(=O)N2C[C@H](O)C[C@@H]2C(=O)N[C@@H](CC(=O)O)C(=O)N[C@@H](C(C)C)C(=O)N(C)[C@@H](Cc2ccccc2)C(=O)N[C@@H](Cc2ccc(O)cc2)C(=O)N2C[C@@H](O)C[C@@H]2C(=O)N[C@@H](Cc2c[nH]c3ccccc23)C(=O)N[C@@H](Cc2ccc(O)cc2)C(=O)N[C@@H](CCCN)C(=O)N[C@H](C(=O)NCC(N)=O)CSCC(=O)N[C@@H](Cc2cc(F)c(F)c(F)c2)C(=O)N(C)[C@@H](Cc2ccccc2)C(=O)N1C [Example 9372] ({CH2CO}-[Phe(3,4,5-F3)][NMeF][NMeNle][d(cisHyp)]DV[NMeF]Y[dHyp]WY[Orn]CG-NH2; thioether N-13)

Same assay, conditions: PD-L1-His 10 nM, PD-1-Ig 20 nM; read-out: HTRF Human PD-L1/PD-1 Binding Assay IC50

pIC50	SMILES
6.00	CC(C)C[C@@H]1NC(=O)[C@H](Cc2c[nH]cn2)NC(=O)[C@@H]2CCCN2C(=O)[C@H](CC(N)=O)NC(=O)[C@H](C)N(C)C(=O)[C@H](Cc2ccc(O)cc2)NC(=O)CSC[C@@H](C(=O)NCC(N)=O)NC(=O)[C@H](C)NC(=O)[C@H](CC(=O)O)N(C)C(=O)[C@H](CCCCN)N(C)C(=O)[C@H](Cc2c[nH]c3ccccc23)NC(=O)[C@H](CO)NC(=O)[C@H](Cc2c[nH]c3ccccc23)NC(=O)[C@@H]2C[C@@H](O)CN2C1=O [Example 1534]
7.90	CCCC[C@H]1C(=O)N2C[C@H](O)C[C@@H]2C(=O)N[C@@H](CC(=O)O)C(=O)N[C@@H](C(C)C)C(=O)N(C)[C@@H](Cc2ccccc2)C(=O)N[C@@H](CCC(=O)O)C(=O)N2C[C@H](O)C[C@@H]2C(=O)N[C@@H](Cc2c[nH]c3ccccc23)C(=O)N[C@@H](Cc2ccc(O)cc2)C(=O)N[C@@H](CCCN)C(=O)N[C@H](C(=O)NCC(N)=O)CSCC(=O)N[C@@H](Cc2cc(F)c(F)c(F)c2)C(=O)N(C)[C@@H](Cc2ccc(O)cc2)C(=O)N1C [Example 10638] ({CH2CO}-[Phe(3,4,5-F3)][NMeY][NMeNle][d(cisHyp)]DV[NMeF]E[d(cisHyp)]WY[Orn]CG-NH2; thioether N-13)
